Here are results for 10 compounds from patent US9890185B2, “Urea derivatives useful as kinase inhibitors” (Respivert Limited, priority 2013, dated 2018).

The test system of assay [1] is PBMCs. Nature of the assay: IL-2 release in CD3/CD28 stimulated PBMC cells (assay c). The class given is cell-based. As to conditions: Homo sapiens, read-out: IC50 Values for Inhibition of Cytokine Release, PBMCs IL-2. The procedure, abridged:
(§1)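 Steps: PBMCs separated from healthy whole blood by density gradient; seeded onto anti-CD3/CD28 coating (0.3 and 3 μg/mL respectively); compound added; incubated 3 days in standard tissue culture; supernatant cytokines quantified by sandwich ELISA, IC50 fitted.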

Assay [2] addresses p38 MAPKα isoform (MAPK14) (Homo sapiens (Human), UniProt Q16539). Nature of the assay: p38 MAPKα enzyme inhibition (FRET, Z-LYTE, Method 2). It counts as biochemical. In a few lines: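 Z-LYTE FRET: p38 MAPKα (80 ng/mL for Method 1, 200 ng/mL for Method 2, pre-dilution) preincubated 2 hr RT with compound (4–0.004 μg/mL solutions), activity read via MAPKAP-K2 phosphorylation after 1 hr RT and 1 hr protease development. Coumarin/fluorescein ratio gives phosphorylation; % inhibition versus uninhibited control, IC50 from concentration-response curve.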

The subject of assay [3] is PBMCs. Nature of the assay: IFN gamma release in CD3/CD28 stimulated PBMC cells (assay c). The class given is cell-based. As to conditions: Homo sapiens, read-out: IC50 Values for Inhibition of Cytokine Release, PBMCs IFNγ. The procedure, abridged: as §1
Another assay has as its system d-U937 cells. Nature of the assay: Accumulation of β catenin in d-U937 cells (assay m). It counts as cell-based, human. As to conditions: percentage relative to Reference Compound at 1 μg/mL. In a few lines: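 Read-out: colourimetric cell-based immunoassay for endogenous β-catenin (OD450 minus 655 reference), normalised to crystal violet absorbance at 595 nm. Test compound or vehicle was applied for 18 hr to U937 monocytes first differentiated with PMA (100 ng/mL) for 48–72 hr.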

Assay [4] concerns PBMCs. Nature of the assay: Cell mitosis assay in PBMCs (assay g). As to conditions: Homo sapiens, PBMC, test compound 5 μg/mL. It counts as cell-based. In a few lines: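 Metaphase arrest with 0.1 μg/mL demecolcine during the final 2 hr of a 20 hr compound exposure, which follows 48 hr of 2% PHA stimulation of healthy-donor human PBMCs. Mitotic lymphocytes counted by flow cytometry (anti-phospho-histone 3 plus propidium iodide). Inhibition expressed relative to 0.5% DMSO.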

Assay [5] has as its system PBMCs. Nature of the assay: LPS-induced IL-8 release in PBMC cells (assay b). As to conditions: Homo sapiens, PBMC; LPS-stimulated PBMCs; read-out: IC50 Values for Inhibition of Cytokine Release, PBMCs IL-8. The class given is cell-based, human. In a few lines: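 Cytokines (TNFα, IL-8) in supernatants were quantified by sandwich ELISA after a 24 h challenge with 1 ng/mL E. coli LPS at 37° C, 5% CO2. Healthy-donor PBMCs had been exposed to compound for 2 h beforehand. IC50 values were fitted from the concentration-response curves.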

Sequence of p38 MAPKα isoform (MAPK14) (Q16539 whole entry, canonical isoform): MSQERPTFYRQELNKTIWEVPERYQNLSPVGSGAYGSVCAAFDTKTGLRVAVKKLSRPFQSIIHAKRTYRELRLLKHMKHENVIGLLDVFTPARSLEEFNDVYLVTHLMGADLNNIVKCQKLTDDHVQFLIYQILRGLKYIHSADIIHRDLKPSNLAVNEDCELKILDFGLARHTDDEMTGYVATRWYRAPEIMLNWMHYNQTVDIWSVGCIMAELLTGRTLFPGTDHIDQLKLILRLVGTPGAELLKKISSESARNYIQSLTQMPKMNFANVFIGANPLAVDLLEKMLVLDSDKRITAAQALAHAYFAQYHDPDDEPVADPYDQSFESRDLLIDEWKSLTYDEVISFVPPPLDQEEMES

Consider `CNC(=O)Cc1cc(C(C)(C)C)cc(NC(=O)Nc2ccc(Oc3ccnc(Nc4cccc(OC)c4)c3)c3ccccc23)c1OC` [38(h), 2-(5-(tert-Butyl)-2-methoxy-3-(3-(4-((2-((3-methoxyphenyl)amino)pyridin-4-yl)oxy)naphthalen-1-yl)ureido)phenyl)-N-methylacetamide], for which the IC50 in the assay with PBMCs [1] came out at 0.16 µM; in assay [2], 0.123 µM; in the assay on PBMCs [3] it was 0.0177 µM; with PBMCs [5] it was 0.0027 µM. Besides, the entries for the “% β-catenin induction” value in the assay with d-U937 cells (test compound 1 μg/mL), in the assay with d-U937 cells (test compound 5 μg/mL) and in the assay on d-U937 cells (test compound 10 μg/mL) were 1.5%, 4.0% and 6.0%, respectively. This compound also displayed an inhibition at 5 µg/mL with PBMCs [4] of 30.3%.
For `COc1cc(Nc2cc(Oc3ccc(NC(=O)Nc4cc(C(C)(C)C)cc(CC(N)=O)c4OC)c4ccccc34)ccn2)ccn1` [38(k), 2-(5-(tert-Butyl)-2-methoxy-3-(3-(4-((2-((2-methoxypyridin-4-yl)amino)pyridin-4-yl)oxy)naphthalen-1-yl)ureido)phenyl)acetamide], the IC50 in the assay on PBMCs [1] came out at 0.281 µM; in assay [2] it was 0.152 µM; with PBMCs [3], 0.0146 µM; in the assay on PBMCs [5], 0.0021 µM. Besides, the “% β-catenin induction” value worked out at 10.5% in the assay on d-U937 cells (test compound 1 μg/mL), 39.5% in the assay with d-U937 cells (test compound 5 μg/mL) and 52.0% with d-U937 cells (test compound 10 μg/mL). The inhibition at 5 µg/mL in the assay with PBMCs [4] is 70.5%.
In the case of `COc1cc(CO)cc(Nc2cc(Oc3ccc(NC(=O)Nc4cc(C(C)(C)C)cc(CC(N)=O)c4OC)c4ccccc34)ccn2)c1` [38(m), 2-(5-(tert-Butyl)-3-(3-(4-((2-((3-(hydroxymethyl)-5-methoxyphenyl)amino)pyridin-4-yl)oxy)naphthalen-1-yl)ureido)-2-methoxyphenyl)acetamide], the IC50 came to 0.0938 µM with PBMCs [1], 0.048 µM in assay [2], 0.007 µM with PBMCs [3] and 0.002 µM with PBMCs [5]. Further, the “% β-catenin induction” value turned out to be 3.0% in the assay on d-U937 cells (test compound 1 μg/mL), 23.0% in the assay with d-U937 cells (test compound 5 μg/mL) and 37.0% in the assay on d-U937 cells (test compound 10 μg/mL). The same compound gave an inhibition at 5 µg/mL with PBMCs [4] of 77.4%.
`COc1cncc(Nc2cc(Oc3ccc(NC(=O)Nc4cc(C(C)(C)C)cc(CC(N)=O)c4OC)c4ccccc34)ccn2)c1` [38(n), 2-(5-(tert-butyl)-2-methoxy-3-(3-(4-((2-((5-methoxypyridin-3-yl)amino)pyridin-4-yl)oxy)naphthalen-1-yl)ureido)phenyl)acetamide]: the IC50 in the assay on PBMCs [1] is 0.348 µM; in assay [2] it was 0.043 µM; in the assay on PBMCs [3], 0.0141 µM; in the assay with PBMCs [5], 0.0014 µM. Moreover, the “% β-catenin induction” value in the assay with d-U937 cells (test compound 1 μg/mL) turned out to be 2.0%; in the assay on d-U937 cells (test compound 5 μg/mL), 21.0%; with d-U937 cells (test compound 10 μg/mL), 23.5%. Besides, in the assay with PBMCs [4], at 5 µg/mL the inhibition was 66.1%.
For `COc1c(CC(N)=O)cc(C(C)(C)C)cc1NC(=O)Nc1ccc(Oc2ccnc(Nc3ccn(C)n3)c2)c2ccccc12` [38(o), 2-(5-(tert-Butyl)-2-methoxy-3-(3-(4-((2-((1-methyl-1H-pyrazol-3-yl)amino)pyridin-4-yl)oxy)naphthalen-1-yl)ureido)phenyl)acetamide], the IC50 in the assay with PBMCs [1] is 0.0608 µM; in assay [2] it was 0.009 µM; in the assay with PBMCs [3], 0.0078 µM; in the assay on PBMCs [5], 0.0013 µM. Also, the “% β-catenin induction” value with d-U937 cells (test compound 1 μg/mL) is listed as 13.0%; with d-U937 cells (test compound 5 μg/mL), 38.0%; in the assay with d-U937 cells (test compound 10 μg/mL), 35.0%. Moreover, the inhibition at 5 µg/mL with PBMCs [4] stood at 83.2%.
Regarding `COc1c(CNC(C)=O)cc(C(C)(C)C)cc1NC(=O)Nc1ccc(Oc2ccnc(NCc3ccccn3)c2)c2ccccc12` [38(q), N-(5-(tert-Butyl)-2-methoxy-3-(3-(4-((2-((pyridin-2-ylmethyl)amino)pyridin-4-yl)oxy)naphthalen-1-yl)ureido)benzyl)acetamide], the IC50 in the assay with PBMCs [1] amounted to 0.443 µM; in assay [2], 0.006 µM; in the assay with PBMCs [3] it was 0.0261 µM; in the assay on PBMCs [5], 0.0014 µM. The figures for the “% β-catenin induction” value in the assay with d-U937 cells (test compound 1 μg/mL), in the assay on d-U937 cells (test compound 5 μg/mL) and with d-U937 cells (test compound 10 μg/mL) were 11.5%, 41.5% and 57.5%, respectively. In the assay with PBMCs [4], the inhibition at 5 µg/mL was 82.1%.
Take `COCCOCCOCCOc1cc(Nc2cc(Oc3ccc(NC(=O)Nc4cc(C(C)(C)C)cc(P(C)(C)=O)c4OC)c4ccccc34)ccn2)cc(OC)c1` [Example 2, 1-(5-(tert-Butyl)-3-(dimethylphosphoryl)-2-methoxyphenyl)-3-(4-((2-((3-methoxy-5-(2-(2-(2-methoxyethoxy)ethoxy)ethoxy)phenyl)amino)pyridin-4-yl)oxy)naphthalen-1-yl)urea]: the IC50 in the assay on PBMCs [1] stood at 0.0761 µM; in assay [2], 0.051 µM; with PBMCs [3] it was 0.0029 µM; with PBMCs [5], 0.001 µM. The “% β-catenin induction” value is reported as 4.0% in the assay with d-U937 cells (test compound 1 μg/mL), 32.5% with d-U937 cells (test compound 5 μg/mL) and 31.5% in the assay with d-U937 cells (test compound 10 μg/mL). Further, testing at 5 µg/mL in the assay on PBMCs [4] gave an inhibition of 58.9%.
Turning to `C#Cc1cc(Nc2cc(Oc3ccc(NC(=O)Nc4cc(C(C)(C)C)cc(P(C)(C)=O)c4OC)c4ccccc34)ccn2)cc(C(=O)NCCOCCOCCOC)c1` [Example 3, 3-((4-((4-(3-(5-(tert-Butyl)-3-(dimethylphosphoryl)-2-methoxyphenyl)ureido)naphthalen-1-yl)oxy)pyridin-2-yl)amino)-5-ethynyl-N-(2-(2-(2-methoxyethoxy)ethoxy)ethyl)benzamide], the IC50 was 0.181 µM with PBMCs [1], 0.091 µM in assay [2], 0.0184 µM with PBMCs [3] and 0.0028 µM in the assay on PBMCs [5]. Besides, the “% β-catenin induction” value is recorded as 5.7% in the assay on d-U937 cells (test compound 1 μg/mL), 9.7% with d-U937 cells (test compound 5 μg/mL) and 7.3% in the assay with d-U937 cells (test compound 10 μg/mL). This compound also displayed an inhibition at 5 µg/mL with PBMCs [4] of 29.4%.
As to `COCCOCCOCCOc1cc(Nc2nccc(Oc3ccc(NC(=O)Nc4cc(C(C)(C)C)cc(C(=O)NCCN5CCOCC5)c4OC)c4ccccc34)n2)cc(OC)c1` [Example 8, 5-(tert-Butyl)-2-methoxy-3-(3-(4-((2-((3-methoxy-5-(2-(2-(2-methoxyethoxy)ethoxy)-ethoxy)phenyl)amino)pyrimidin-4-yl)oxy)naphthalen-1-yl)ureido)-N-(2-morpholinoethyl)-benzamide], the IC50 in the assay on PBMCs [1] was 0.0414 µM; in assay [2] it was 0.188 µM; in the assay on PBMCs [3], 0.0022 µM; with PBMCs [5], 0.0013 µM. In addition, the “% β-catenin induction” value was found to be 2.5% with d-U937 cells (test compound 1 μg/mL), 22.5% in the assay with d-U937 cells (test compound 5 μg/mL) and 26.5% in the assay with d-U937 cells (test compound 10 μg/mL). This compound also showed an inhibition at 5 µg/mL in the assay with PBMCs [4] of 58.1%.
Turning to `COCCOCCOCCOc1cc(Nc2cc(Oc3ccc(NC(=O)Nc4cc(C(C)(C)C)cc(S(C)(=O)=O)c4OC)c4ccccc34)ccn2)cc(OC)c1` [Example 9, 1-(5-(tert-Butyl)-2-methoxy-3-(methylsulfonyl)phenyl)-3-(4-((2-((3-methoxy-5-(2-(2-(2-methoxyethoxy)ethoxy)ethoxy)phenyl)amino)pyridin-4-yl)oxy)naphthalen-1-yl)urea], the IC50 with PBMCs [1] came to 0.0427 µM; in assay [2], 0.29 µM; in the assay with PBMCs [3] it was 0.0094 µM; in the assay on PBMCs [5], 0.0035 µM. Further, the “% β-catenin induction” value in the assay with d-U937 cells (test compound 1 μg/mL) is reported as 4.5%; with d-U937 cells (test compound 5 μg/mL), 5.5%; with d-U937 cells (test compound 10 μg/mL), 0.0%. The same compound registered an inhibition at 5 µg/mL with PBMCs [4] of 50.8%.
